Measurements published in the supplement of paper PMC10307832.

Key:
Assay in all cases: relative viability (nuclei count vs DMSO), 5 days (fraction); higher = more cells survive
201T = test system: 201T
Outline: (§1)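 Lung cancer cell lines in 1536-well plates were dosed by pin tool the day after seeding, either with one drug alone or with a fixed anchor-drug dose plus five library-drug doses (not always all listed) in √10 steps. After 5 days, cells were fixed and their nuclei stained in one step (final 0.05% Triton X-100, 1% formaldehyde, 1 ug/ml Hoechst), then counted on 4× images. Relative viability is the nuclei count in treated wells divided by that in vehicle wells. Values are medians of duplicate plates.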

A-427 = test system: A-427
Outline: as §1

BEN = test system: BEN
Outline: as §1

COR-L23 = test system: COR-L23
Outline: as §1

EKVX = test system: EKVX
Outline: as §1

EMC-BAC-2 = test system: EMC-BAC-2
Outline: as §1

EPLC-272H = test system: EPLC-272H
Outline: as §1

HCC-44 = test system: HCC-44
Outline: as §1

LXF-289 = test system: LXF-289
Outline: as §1

NCI-H1650 = test system: NCI-H1650
Outline: as §1

NCI-H1651 = test system: NCI-H1651
Outline: as §1

NCI-H1793 = test system: NCI-H1793
Outline: as §1

NCI-H2023 = test system: NCI-H2023
Outline: as §1

NCI-H2087 = test system: NCI-H2087
Outline: as §1

NCI-H2126 = test system: NCI-H2126
Outline: as §1

NCI-H3122 = test system: NCI-H3122
Outline: as §1

NCI-H322M = test system: NCI-H322M
Outline: as §1

NCI-H596 = test system: NCI-H596
Outline: as §1

SK-LU-1 = test system: SK-LU-1
Outline: as §1

SW 1573 = test system: SW 1573
Outline: as §1

UMC-11 = test system: UMC-11
Outline: as §1

## C=C1C(=O)O[C@@H](CCCCCCCC)[C@@H]1C(=O)O [C-75] + CC1(C)CCC(c2ccc(Cl)cc2)=C(CN2CCN(c3ccc(C(=O)NS(=O)(=O)c4ccc(N[C@H](CCN5CCOCC5)CSc5ccccc5)c(S(=O)(=O)C(F)(F)F)c4)cc3)CC2)C1 [Navitoclax] (partner 0.5 µM)
201T; first compound 0.08 µM
  relative viability: 1.23
201T; first compound 0.253 µM
  relative viability: 1.27
201T; first compound 0.8 µM
  relative viability: 1.23
201T; first compound 2.53 µM
  relative viability: 1.17
201T; first compound 8 µM
  relative viability: 1.21
A-427; first compound 0.08 µM
  relative viability: 0.935
A-427; first compound 0.253 µM
  relative viability: 1.04
A-427; first compound 0.8 µM
  relative viability: 0.915
A-427; first compound 2.53 µM
  relative viability: 0.903
A-427; first compound 8 µM
  relative viability: 0.93
BEN; first compound 0.08 µM
  relative viability: 0.0695
BEN; first compound 0.253 µM
  relative viability: 0.0673
BEN; first compound 0.8 µM
  relative viability: 0.0656
BEN; first compound 2.53 µM
  relative viability: 0.0589
BEN; first compound 8 µM
  relative viability: 0.0596
COR-L23; first compound 0.08 µM
  relative viability: 0.966
COR-L23; first compound 0.253 µM
  relative viability: 0.884
COR-L23; first compound 0.8 µM
  relative viability: 0.955
COR-L23; first compound 2.53 µM
  relative viability: 0.989
COR-L23; first compound 8 µM
  relative viability: 0.964
EKVX; first compound 0.08 µM
  relative viability: 0.944
EKVX; first compound 0.253 µM
  relative viability: 0.893
EKVX; first compound 0.8 µM
  relative viability: 0.831
EKVX; first compound 2.53 µM
  relative viability: 0.864
EKVX; first compound 8 µM
  relative viability: 1.03
EMC-BAC-2; first compound 0.08 µM
  relative viability: 1.13
EMC-BAC-2; first compound 0.253 µM
  relative viability: 1.18
EMC-BAC-2; first compound 0.8 µM
  relative viability: 1.15
EMC-BAC-2; first compound 2.53 µM
  relative viability: 1.07
EMC-BAC-2; first compound 8 µM
  relative viability: 1.18
EPLC-272H; first compound 0.08 µM
  relative viability: 1.22
EPLC-272H; first compound 0.253 µM
  relative viability: 1.03
EPLC-272H; first compound 0.8 µM
  relative viability: 1.21
EPLC-272H; first compound 2.53 µM
  relative viability: 0.856
EPLC-272H; first compound 8 µM
  relative viability: 0.961
HCC-44; first compound 0.08 µM
  relative viability: 0.972
HCC-44; first compound 0.253 µM
  relative viability: 0.959
HCC-44; first compound 0.8 µM
  relative viability: 0.905
HCC-44; first compound 2.53 µM
  relative viability: 0.791
HCC-44; first compound 8 µM
  relative viability: 1.02
LXF-289; first compound 0.08 µM
  relative viability: 0.896
LXF-289; first compound 0.253 µM
  relative viability: 0.999
LXF-289; first compound 0.8 µM
  relative viability: 0.91
LXF-289; first compound 2.53 µM
  relative viability: 0.873
LXF-289; first compound 8 µM
  relative viability: 0.928
NCI-H1650; first compound 0.08 µM
  relative viability: 1.22
NCI-H1650; first compound 0.253 µM
  relative viability: 1.36
NCI-H1650; first compound 0.8 µM
  relative viability: 1.22
NCI-H1650; first compound 2.53 µM
  relative viability: 1.36
NCI-H1650; first compound 8 µM
  relative viability: 0.97
NCI-H1651; first compound 0.08 µM
  relative viability: 1.07
NCI-H1651; first compound 0.253 µM
  relative viability: 1.11
NCI-H1651; first compound 0.8 µM
  relative viability: 0.955
NCI-H1651; first compound 2.53 µM
  relative viability: 0.885
NCI-H1651; first compound 8 µM
  relative viability: 0.901
NCI-H1793; first compound 0.08 µM
  relative viability: 0.494
NCI-H1793; first compound 0.253 µM
  relative viability: 0.564
NCI-H1793; first compound 0.8 µM
  relative viability: 0.313
NCI-H1793; first compound 2.53 µM
  relative viability: 0.308
NCI-H1793; first compound 8 µM
  relative viability: 0.29
NCI-H2023; first compound 0.08 µM
  relative viability: 0.971
NCI-H2023; first compound 0.253 µM
  relative viability: 1.04
NCI-H2023; first compound 0.8 µM
  relative viability: 0.959
NCI-H2023; first compound 2.53 µM
  relative viability: 0.659
NCI-H2023; first compound 8 µM
  relative viability: 0.945
NCI-H2087; first compound 0.08 µM
  relative viability: 1.02
NCI-H2087; first compound 0.253 µM
  relative viability: 1.05
NCI-H2087; first compound 0.8 µM
  relative viability: 0.934
NCI-H2087; first compound 2.53 µM
  relative viability: 0.927
NCI-H2087; first compound 8 µM
  relative viability: 0.87
NCI-H2126; first compound 0.08 µM
  relative viability: 0.869
NCI-H2126; first compound 0.253 µM
  relative viability: 0.902
NCI-H2126; first compound 0.8 µM
  relative viability: 0.871
NCI-H2126; first compound 2.53 µM
  relative viability: 0.718
NCI-H2126; first compound 8 µM
  relative viability: 0.818
NCI-H3122; first compound 0.08 µM
  relative viability: 0.973
NCI-H3122; first compound 0.253 µM
  relative viability: 1.05
NCI-H3122; first compound 0.8 µM
  relative viability: 0.986
NCI-H3122; first compound 8 µM
  relative viability: 1.09
NCI-H322M; first compound 0.08 µM
  relative viability: 1.18
NCI-H322M; first compound 0.253 µM
  relative viability: 1.54
NCI-H322M; first compound 0.8 µM
  relative viability: 1.28
NCI-H322M; first compound 2.53 µM
  relative viability: 1.12
NCI-H322M; first compound 8 µM
  relative viability: 1.29
NCI-H596; first compound 0.08 µM
  relative viability: 0.961
NCI-H596; first compound 0.253 µM
  relative viability: 1.16
NCI-H596; first compound 0.8 µM
  relative viability: 0.901
NCI-H596; first compound 2.53 µM
  relative viability: 0.771
NCI-H596; first compound 8 µM
  relative viability: 0.897
SK-LU-1; first compound 0.08 µM
  relative viability: 0.932
SK-LU-1; first compound 0.253 µM
  relative viability: 0.85
SK-LU-1; first compound 0.8 µM
  relative viability: 0.763
SK-LU-1; first compound 2.53 µM
  relative viability: 0.709
SK-LU-1; first compound 8 µM
  relative viability: 0.751
SW 1573; first compound 0.08 µM
  relative viability: 1.01
SW 1573; first compound 0.253 µM
  relative viability: 0.969
SW 1573; first compound 0.8 µM
  relative viability: 1.21
SW 1573; first compound 2.53 µM
  relative viability: 1.06
SW 1573; first compound 8 µM
  relative viability: 0.875
UMC-11; first compound 0.08 µM
  relative viability: 0.3
UMC-11; first compound 0.253 µM
  relative viability: 0.299
UMC-11; first compound 0.8 µM
  relative viability: 0.292
UMC-11; first compound 2.53 µM
  relative viability: 0.287
UMC-11; first compound 8 µM
  relative viability: 0.239
